Measurements: patent US11980596B2 (priority 2017, dated 2024)

System: subjects with MDD at imminent risk for suicide
Test: SIBAT clinical global judgment of suicide risk ([…]2001)
Type: in vivo, human
From the text: The clinical global judgment of suicide risk (Module 8) summarizes clinician overall judgment of suicide risk as derived from information gathered from the full SIBAT tool. It operates like numerous other CGI-severity scales that have been used in other psychiatric studies. Change in the clinical global judgment of suicide risk is designed to directly identify clinical meaningful changes in suicidal ideation and to permit classification of suicide risk.
The analysis of the change in SIBAT score was based on an ANCOVA model on ranks of change in SIBAT with treatment, antidepressant therapy, and analysis center as factors, and baseline value (unranked) as a covariate. There was a significant difference (two-sided […]) between the two treatment groups when comparing the mean rank of change from baseline at Day 1: 4-hours postdose in favor of esketamine 84 mg See, Table 58. See, FIG. 39. […] This difference was not evident at the Day 25 DB endpoint. See, FIG. 40, which is based on LOCF data and analyzed using Cochran-Mantel-Haenszel test controlling for analysis center and antidepressant therapy.

CN[C@]1(c2ccccc2Cl)CCCCC1=O [esketamine, (S)-2-(2-chlorophenyl)-2-(methylamino)cyclohexanone]
SIBAT Clinical Global Judgment of Suicide Risk: change vs placebo (84 mg, Day 1: 4-hours postdose and Day 2): statistically superior
SIBAT Clinical Global Judgment of Suicide Risk, Day 1 (DB): 4H, Median (Range) (esketamine 84 mg, LOCF, ITT, N = 33): 5.0 (0; 6)
SIBAT Clinical Global Judgment of Suicide Risk, Change from Baseline to Day 1 (DB): 4H, Median (Range) (esketamine 84 mg, LOCF, ITT, N = 33, negative change = improvement): 0.0 (−6; 1)
SIBAT Clinical Global Judgment of Suicide Risk, Day 2 (DB), Median (Range) (esketamine 84 mg, LOCF, ITT, N = 35): 5.0 (0; 6)
SIBAT Clinical Global Judgment of Suicide Risk, Change from Baseline to Day 2 (DB), Median (Range) (esketamine 84 mg, LOCF, ITT, N = 35, negative change = improvement): −1.0 (−6; 1)
SIBAT Clinical Global Judgment of Suicide Risk, Baseline (DB), Median (Range) (esketamine 84 mg, predose Day 1, ITT, N = 35): 6.0 (5; 6)
